Structures can show the parent of a compound that is named as a salt.
Columns and labels:
[1] = Drug release from electrospun PLGA or PLLA fibers in Franz diffusion cells (Example 2); type: physicochemical; details: PBS 37° C.
Description: Poly(lactide-co-glycolide) (50:50) (PLGA) or poly(L-lactide) (PLLA) was dissolved in hexafluoroisopropanol (HFIP) and gently shaken for 3 hours till the polymer was completely dissolved. To this a solution of LH or mupirocin in HFIP was slowly added without any visible precipitation and shaken. The homogeneous drug/polymer solution was then electrospun as per the following parameters on a rotating mandrel. Differential Scanning Calorimetry (DSC) was conducted on the fibers to study drug inclusion. The dried scaffolds were sectioned into uniform weight discs and placed into Franz diffusion cells (Permegear Inc., Bethlehem, Pa.) with phosphate buffered saline at 37° C. rotated at 600 rpm. Samples were withdrawn at specific times and analyzed by HPLC. An equivalent amount of fresh PBS was replaced each time.

[2] = tested on: mupirocin-sensitive bacteria; details: all the strains of mupirocin-sensitive bacteria; cited from earlier work
[3] = tested on: Staphylococcus aureus ATCC 25923; details: 5 μg mupirocin disc, interpretative criteria; cited from earlier work

Compound	LH released ([1]; within 48 hrs, PLGA 20% fibers, LH 100% w/v of polymer) [%]	LH burst release ([1]; within the first hour, PLGA 20% fibers, LH 100% w/v of polymer) [%]	mupirocin cumulative release ([1]; in the next 72 hours, PLLA 15% fibers, mupirocin 25% w/v of polymer) [wt %]	mupirocin initial burst release ([1]; within an hour, PLLA 15% fibers, mupirocin 25% w/v of polymer) [wt %]	MIC [2] [µg/mL]	zone diameter considered acceptable [3] [mm]
CCN(CC)CC(=O)Nc1c(C)cccc1C [LH, Lidocaine hydrochloride]	92	80	–	–	–	–
C/C(=C\C(=O)OCCCCCCCCC(=O)O)C[C@@H]1OC[C@H](C[C@@H]2O[C@H]2[C@@H](C)[C@H](C)O)[C@@H](O)[C@H]1O [mupirocin]	–	–	70	36	0.06 to 0.5	22 to 27

Reference: US20100166854A1, “ELECTROSPUN MATRICES FOR DELIVERY OF HYDROPHILIC AND LIPOPHILIC COMPOUNDS” (priority 2006, published 2010)
